In patent US8686113B2 (priority 2009, dated 2014):
In brackets after ≈: the same amount, converted by molar mass. Where two headings read alike, the source gives them in different places. Non-standard residues stand in square brackets, D forms with d. Residues, ends and D or L forms follow the SMILES beside them. *: point of attachment. Hyp = O=C(O)[C@@H]1C[C@@H](O)CN1; hArg = N=C(N)NCCCC[C@H](N)C(=O)O; Orn = NCCC[C@H](N)C(=O)O; NHPr = CCCN*

Experiments:
[1] = tested on: E. coli BL21 A1; type: cell-based, Escherichia coli
In short: (§1)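 Broth microdilution in 1% TSB with twofold peptide series, final 128 μg/mL to 62.5 ng/mL, against 5×10^6 bacteria/mL stock suspension added 1:1. Incubated 20 h at 37 °C, growth read by absorbance at 595 nm; MIC is the lowest concentration with no growth, determined in triplicate.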

[2] = mouse, serum, Half-life in 25% mouse serum, 25% aqueous mouse serum, 37° C., 75 μg/mL peptide
Protocol: (§4) For this, the peptides and peptidomimetics were dissolved in water, mouse serum was added and the peptide concentration was adjusted to 75 μg/mL. While shaking continuously, the mixture was incubated at 37° C. After 0, 30, 60, 120, 240 and 360 minutes, in each case an aliquot was taken and mixed with 15% aqueous trichloroacetic acid (Carl Roth GmbH & Co. KG; Karlsruhe, Germany). After incubation on ice for a further 10 minutes, the precipitated serum proteins were centrifuged off (5 min, 13400 rpm, MiniSpin, Eppendorf AG, Hamburg, Germany). The supernatant was removed, neutralized with 1 mol/L aqueous sodium hydroxide solution (Fluke Chemie GmbH, Buchs, Switzerland) and stored at −20° C. until analysis.
(§5) The supernatants were analyzed by RP-HPLC with a linear acetonitrile gradient (Biosolve BV, Valkenswaard, The Netherlands) in the presence of 0.1% trifluoroacetic acid (TFA, UV-grade, Fluka Chemie GmbH, Buchs, Switzerland) as ion-pairing reagent. The fractions were co-crystallized with α-cyanohydroxycinnamic acid (Bruker Daltonik GmbH; Bremen, Germany) as matrix (5.3 mg/mL in 50% acetonitrile in 0.1% aqueous TFA) and were analyzed with a tandem mass spectrometer (MALDI-TOF/TOF-MS, 4700 Proteomics Analyzer; Applied Biosystems GmbH, Weiterstadt, Germany) in the positive-ion reflector mode. The proportion of intact peptides and their degradation products or metabolites could thus be identified and quantified at the individual time points. The control used was 25% aqueous mouse serum, which was analyzed in parallel for the same time intervals.

[3] = tested on: Escherichia coli DSM 10233
Protocol: (§2) The minimum inhibitory concentrations (MIC) of the antimicrobial peptides and peptide derivatives were determined in microdilution assays. These used a continuous peptide dilution in sterile flat-bottomed 96-well microtiter plates (polystyrene, Greiner Bio-One GmbH, Frickenhausen, Germany) and a total volume of 100 μL per well. The aqueous peptide or peptidomimetic solutions were diluted with 1% TSB water, to obtain a final concentration of 256 μg/mL. 50 μL of the peptide or peptidomimetic solution was pipetted into the first well of each series and stirred. From this solution, 50 μL was transferred to the second well, stirred and again 50 μL was transferred to the next well, and so on. A double dilution series is obtained, beginning at 256 μg/mL in the first well to 125 ng/mL in the twelfth well. The bacteria, e.g. E. coli BL21 A1, were cultured overnight at 37° C. in nutrient broth (NB, Carl Roth GmbH+Co. KG, Karlsruhe, Germany). 50 μL of a 5×10^6 bacteria/mL suspension in 1% TSB was added to each well of the microtiter plate and thus a final concentration of the peptides or peptidomimetics from 128 μg/mL (well 1) to 62.5 ng/mL (well 12) was established in each series. The plates were incubated at 37° C. for 20 h and then the absorption was measured at 595 nm with a TECAN microtiter plate spectrophotometer (Tecan Trading AG, Mannedorf, Switzerland). The MIC values of all peptides and peptidomimetics were determined in triplicate. Sterile water was used as negative control.
The peptides shown in Table 8 were investigated for their MIC against pathogenic bacteria such as E. coli DSM 10233, K. pneumoniae DSM 681 and P. aeruginosa DSM 3227.

[4] = tested on: E. coli D31 J. Wilson; conditions: ¼ Muller-Hinton medium
Protocol: as §2
(§3) The tests were in this case carried out in Mueller-Hinton medium (¼ concentrated), which is equivalent to 1% TSB.

[5] = tested on: K. pneumoniae K6 ATCC 700603
Protocol: as §2, §3

[6] = tested on: K. pneumoniae ATCC 27799
Protocol: as §2, §3

[7] = tested on: K. pneumoniae 012-3131
Protocol: as §2, §3

[8] = tested on: E. coli 045-849 SENTRY; conditions: 045-849 SENTRY
Protocol: as §2, §3

[9] = tested on: E. coli ATCC BAA-457; conditions: ¼ Muller-Hinton medium
Protocol: as §2, §3

[10] = tested on: M. luteus 10240; test: Growth inhibition assay (microdilution MIC); type: cell-based, Micrococcus luteus; conditions: 10240, 20 h
In short: as §1

[11] = mouse, serum
Protocol: as §4, §5

| Compound | MIC E. coli BL21 A1 ([1]; BL21, 20 h) | half-life [2] | MIC E. coli D31 J. Wilson [4] | MIC K. pneumoniae K6 ATCC 700603 ([5]; ATCC 700603) | MIC K. pneumoniae ATCC 27799 ([6]; ATCC 27799) | MIC K. pneumoniae 012-3131 [7] | MIC E. coli 045-849 SENTRY [8] | MIC E. coli SEQ 102ATCC # BAA-4 57 [9] | MIC M. luteus 10240 [10] | other results |
| --- | --- | --- | --- | --- | --- | --- | --- | --- | --- | --- |
| CCCNC(=O)[C@H](CCCNC(=N)N)NC(=O)[C@H](CC(N)=O)NC(=O)[C@H](Cc1ccc(O)cc1)NC(=O)[C@@H](NC(=O)[C@H](CCCN)NC(=O)[C@H](CCCNC(=N)N)NC(=O)[C@@H]1CCCN1C(=O)[C@@H]1CCCN1C(=O)[C@H](CCCNC(=N)N)NC(=O)[C@@H]1CCCN1C(=O)[C@H](CCCNC(=N)N)NC(=O)[C@@H]1CCCN1C(=O)[C@H](CC(C)C)NC(=O)[C@H](Cc1ccc(O)cc1)NC(=O)[C@@H]1CCCN1C(=O)[C@@H]1CCCN1C(=O)[C@H](CCCCN)NC(=O)[C@H](CC(=O)O)NC(=O)[C@@H](N)C(C)C)[C@@H](C)CC [SEQ ID NO. 71, VDKPPYLPRPRPPROIYNR-NHC3H7] (H-VDKPPYLPRPRPPR[Orn]IYNR-NHPr) | 4 µg/mL (≈ 1.67 µM) | > 6 h |  |  |  |  |  |  |  |  |
| CC[C@H](C)[C@H](NC(=O)[C@H](Cc1ccc(O)cc1)NC(=O)[C@H](CC(N)=O)NC(=O)[C@@H](N)CCCN)C(=O)N[C@@H](CCCN)C(=O)N[C@@H](CCCNC(=N)N)C(=O)N1CCC[C@H]1C(=O)N1CCC[C@H]1C(=O)N[C@@H](CCCNC(=N)N)C(=O)N1CCC[C@H]1C(=O)N[C@@H](CCCNC(=N)N)C(=O)N1CCC[C@H]1C(=O)N[C@@H](CC(C)C)C(=O)N[C@@H](Cc1ccc(O)cc1)C(=O)N1CCC[C@H]1C(=O)N1CCC[C@H]1C(=O)N[C@@H](CCCCN)C(=O)N[C@@H](CC(=O)O)C(=O)N[C@H](C(N)=O)C(C)C [SEQ ID NO. 113, ONYIORPPRPRPLYPPKDV-NH2] (H-[Orn]NYI[Orn]RPPRPRPLYPPKDV-NH2) |  |  |  |  |  |  |  |  |  | MIC E. coli DSM 10233 [3]: 1 to 4 µg/mL |
| CC[C@H](C)[C@H](NC(=O)[C@H](CCCNC(=N)N)NC(=O)[C@H](CCCNC(=N)N)NC(=O)[C@@H]1CCCN1C(=O)[C@@H]1CCCN1C(=O)[C@H](CCCNC(=N)N)NC(=O)[C@@H]1CCCN1C(=O)[C@H](CCCNC(=N)N)NC(=O)[C@@H]1C[C@@H](O)CN1C(=O)[C@H](CC(C)C)NC(=O)[C@H](Cc1ccc(O)cc1)NC(=O)[C@@H]1CCCN1C(=O)[C@@H]1CCCN1C(=O)[C@H](CCCCN)NC(=O)[C@H](CC(=O)O)NC(=O)[C@@H](N)C(C)C)C(=O)N[C@@H](Cc1ccc(O)cc1)C(=O)N[C@@H](CC(N)=O)C(=O)N[C@@H](CCCNC(=N)N)C(=O)O [compound 21] (H-VDKPPYL[Hyp]RPRPPRRIYNR-OH) | 16 µg/mL (≈ 6.65 µM) |  | 32 µg/mL (≈ 13.3 µM) | 64 µg/mL (≈ 26.6 µM) | 128 µg/mL (≈ 53.2 µM) | 32 µg/mL (≈ 13.3 µM) | 16 µg/mL (≈ 6.65 µM) | 64 µg/mL (≈ 26.6 µM) | 16 µg/mL (≈ 6.65 µM) |  |
| CC[C@H](C)[C@H](NC(=O)[C@H](CCCNC(=N)N)NC(=O)[C@H](CCCNC(=N)N)NC(=O)[C@@H]1CCCN1C(=O)[C@@H]1CCCN1C(=O)[C@H](CCCNC(=N)N)NC(=O)[C@@H]1CCCN1C(=O)[C@H](CCCNC(=N)N)NC(=O)[C@@H]1CCCN1C(=O)[C@H](CC(C)C)NC(=O)[C@H](Cc1ccc(O)cc1)NC(=O)[C@@H]1CCCN1C(=O)[C@@H]1C[C@@H](O)CN1C(=O)[C@H](CCCCN)NC(=O)[C@H](CC(=O)O)NC(=O)[C@@H](N)C(C)C)C(=O)N[C@@H](Cc1ccc(O)cc1)C(=O)N[C@@H](CC(N)=O)C(=O)N[C@@H](CCCNC(=N)N)C(=O)O [compound 23] (H-VDK[Hyp]PYLPRPRPPRRIYNR-OH) | 8 µg/mL (≈ 3.32 µM) |  | 8 µg/mL (≈ 3.32 µM) | 32 µg/mL (≈ 13.3 µM) | 64 µg/mL (≈ 26.6 µM) | 16 µg/mL (≈ 6.65 µM) | 8 µg/mL (≈ 3.32 µM) | 32 µg/mL (≈ 13.3 µM) | 16 µg/mL (≈ 6.65 µM) |  |
| CC[C@H](C)[C@H](NC(=O)[C@@H]1C[C@@H](O)CN1C(=O)[C@H](CCCNC(=N)N)NC(=O)[C@@H]1CCCN1C(=O)[C@@H]1CCCN1C(=O)[C@H](CCCNC(=N)N)NC(=O)[C@@H]1CCCN1C(=O)[C@H](CCCNC(=N)N)NC(=O)[C@@H]1CCCN1C(=O)[C@H](CC(C)C)NC(=O)[C@H](Cc1ccc(O)cc1)NC(=O)[C@@H]1CCCN1C(=O)[C@@H]1CCCN1C(=O)[C@H](CCCCN)NC(=O)[C@H](CC(=O)O)NC(=O)[C@@H](N)C(C)C)C(=O)N[C@@H](Cc1ccc(O)cc1)C(=O)N[C@@H](CC(N)=O)C(=O)N[C@@H](CCCNC(=N)N)C(N)=O [compound 25] (H-VDKPPYLPRPRPPR[Hyp]IYNR-NH2) | 16 µg/mL (≈ 6.82 µM) |  |  |  |  |  |  |  | 8 µg/mL (≈ 3.41 µM) | half-life [11]: 4 h |
| CC[C@H](C)[C@H](NC(=O)[C@H](CCCCNC(=N)N)NC(=O)[C@H](CCCNC(=N)N)NC(=O)[C@@H]1CCCN1C(=O)[C@@H]1CCCN1C(=O)[C@H](CCCNC(=N)N)NC(=O)[C@@H]1CCCN1C(=O)[C@H](CCCNC(=N)N)NC(=O)[C@@H]1CCCN1C(=O)[C@H](CC(C)C)NC(=O)[C@H](Cc1ccc(O)cc1)NC(=O)[C@@H]1CCCN1C(=O)[C@@H]1CCCN1C(=O)[C@H](CCCCN)NC(=O)[C@H](CC(=O)O)NC(=O)[C@@H](N)C(C)C)C(=O)N[C@@H](Cc1ccc(O)cc1)C(=O)N[C@@H](CC(N)=O)C(=O)N[C@@H](CCCCNC(=N)N)C(N)=O [compound 67] (H-VDKPPYLPRPRPPR[hArg]IYN[hArg]-NH2) | 4 µg/mL (≈ 1.65 µM) |  |  |  |  |  |  |  | 4 µg/mL (≈ 1.65 µM) | half-life [11]: 0.917 h |
| H-VDKPPYLPRPKPPRRIYNNR-OH [compound 5] | 16 µg/mL |  | 64 µg/mL |  |  | 64 µg/mL | 16 µg/mL | 128 µg/mL | 16 µg/mL | MIC K. pneumoniae K6 ATCC 700603 ([5]; ¼ Muller-Hinton medium): 128 µg/mL; MIC K. pneumoniae ATCC 27799 ([6]; ¼ Muller-Hinton medium): 128 µg/mL |
| H-VDKPPYLPRPRPPRPIYNR-OH [compound 20] | 8 µg/mL |  | 4 µg/mL | 128 µg/mL | 64 µg/mL | 64 µg/mL | 8 µg/mL | 32 µg/mL | 16 µg/mL |  |
| H-VDKPPYLPRPRPPRRIYN-OH [SEQ ID NO. 28] |  | 2 h |  |  |  |  |  |  |  | MIC E. coli BL21 A1 ([1]; 1% TSB, 20 h at 37° C.): 64 µg/mL |
| H-VDKPPYLPRPRPPRRIYNN-NH2 [compound 51] | 16 µg/mL | 2 h |  |  |  |  |  |  | 64 µg/mL |  |
| H-VDKPPYLPRPRPPRRIYNRN-NH2 [compound 17] | 16 µg/mL | 0.75 h |  |  |  |  |  |  | 128 µg/mL |  |
| H-VDKPPYLPRPRPPRRIYNRN-OH [compound 16] | 8 µg/mL |  | 32 µg/mL | 64 µg/mL | 128 µg/mL | 32 µg/mL | 4 µg/mL | 32 µg/mL | 16 µg/mL |  |
